# Tested on: TNFα
# Assay: IRAK4 Monocyte TNFα Cell Based Assay
# Design: species or system human
# Conditions: Homo sapiens, Monocyte, human monocytes; second part of Table 2, compounds 33-343; unit inferred; read-out: EC50 MONO TNF HTRF
# Outline: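 TNFα release quantified by HTRF (cryptate/XL665 antibody pair, overnight at RT) after 1 h compound pre-incubation (0.1% DMSO) and 4 h LPS challenge at 50 pg/ml, 37 °C, 5,000 monocytes per well. Signal ratio normalised between unstimulated (0%) and stimulated (100%) controls.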
row,EC50,Compound
1,27.1 nM,"CC(C)Nc1cc(-c2ccc3cc(C#N)cnn23)ncc1-c1nnc([C@@H]2CC[C@H]2C(C)(C)O)s1 (racemic) [Example 88, 7-(5-(5-((1,2-trans)-2-(2-hydroxypropan-2-yl)cyclobutyl)-1,3,4-thiadiazol-2-yl)-4-(isopropylamino)pyridin-2-yl)pyrrolo[1,2-b]pyridazine-3-carbonitrile]"

# Same assay, conditions: human monocytes; second part of Table 2, compounds 33-343; unit inferred; read-out: EC50 MONO TNF HTRF
row,EC50,Compound
1,7.2 nM,"CC(C)Nc1cc(-c2ccc3cc(C#N)cnn23)ncc1-c1nnc(N2C[C@H]3CC[C@@H](C2)[C@@]3(C)O)s1 [Example 153, 7-(5-(5-((1R,55,8r)-8-hydroxy-8-methyl-3-azabicyclo[3.2.1]octan-3-yl)-1,3,4-thiadiazol-2-yl)-4-(isopropylamino)pyridin-2-yl)pyrrolo[1,2-b]pyridazine-3-carbonitrile]"
2,419 nM,CC(C)Nc1cc(-c2ccc3cc(C#N)cnn23)ncc1-c1nnc(C2CCOC2)s1 (centres unmarked) [Compound 322]
3,18.3 nM,"CC(=O)N1CC2CC(C1)N2c1nnc(-c2cnc(-c3ccc4cc(C#N)cnn34)cc2NC(C)C)s1 [Compound 261, 7-(5-(5-(3-acety1-3,6-diazabicyclo[3.1.1]heptan-6-yl)-1,3,4-thiadiazol-2-yl)-4-(isopropylamino)pyridin-2-yl)pyrrolo[1,2-b]pyridazine-3-carbonitrile]"
4,5.3 nM,"CC(=O)N1C[C@@H]2C[C@H]1CN2c1nnc(-c2cnc(-c3ccc4cc(C#N)cnn34)cc2NC(C)C)s1 [Example 302, 7-(5-(5-((1S,4S)-5-acety1-2,5-diazabicyclo[2.2.1]heptan-2-yl)-1,3,4-thiadiazol-2-yl)-4-(isopropylamino)pyridin-2-yl)pyrrolo[1,2-b]pyridazine-3-carbonitrile]"
5,15.9 nM,"CC(=O)N[C@H]1C[C@@H](c2nnc(-c3cnc(-c4ccc5cc(C#N)cnn45)cc3NC(C)C)s2)C1 [Compound 279, N-((1s,3s)-3-(5-(6-(3-cyanopyrrolo[1,2-b]pyridazin-7-yl)-4-(isopropylamino)pyridin-3-yl)-1,3,4-thiadiazol-2-yl)cyclobutyl)acetamide]"
6,5.2 nM,"CC(C)Nc1cc(-c2ccc3cc(C#N)cnn23)ncc1-c1nnc(N2C[C@H]3CC[C@@H](C2)[C@H]3O)s1 [Example 146, 7-(5-(5-((1R,5S,8r)-8-hydroxy-3-azabicyclo[3.2.1]octan-3-yl)-1,3,4-thiadiazol-2-yl)-4-(isopropylamino)pyridin-2-yl)pyrrolo[1,2-b]pyridazine-3-carbonitrile]"

# Continued, compound first:
row,Compound,EC50
1,CC(C)Nc1cc(-c2ccc3cc(C#N)cnn23)ncc1-c1nnc([C@H]2CC[C@H](NC(=O)C3CCN(C)CC3)CC2)s1 [Compound 340],9.1 nM
2,CC(=O)N[C@H]1CN(c2nnc(-c3cnc(-c4ccc5cc(C#N)cnn45)cc3NC(C)C)s2)CC12CC2 [Compound 323],3.7 nM
3,CC(=O)N[C@@H]1[C@@H]2CC[C@H]1CN(c1nnc(-c3cnc(-c4ccc5cc(C#N)cnn45)cc3NC3COC3)s1)C2 [Example 184],2.4 nM
4,"CC(=O)NC1CCC(c2nnc(-c3cnc(-c4ccc5cc(C#N)cnn45)cc3NC3CCC(c4cnn(C(F)F)c4)CC3)s2)CC1 [Example 227, N-((1R,4r)-4-(5-(6-(3-cyanopyrrolo[1,2-b]pyridazin-7-yl)-4-(((1r,4R)-4-(1-(difluoromethyl)-1H-pyrazol-4-yl)cyclohexyl)amino)pyridin-3-yl)-1,3,4-thiadiazol-2-yl)cyclohexyl)acetamide]",14.4 nM
5,CC(=O)NC1CCC2(CC1)CN(c1nnc(-c3cnc(-c4ccc5cc(C#N)cnn45)cc3N[C@H](C)C#N)s1)C2 [Example 77],3.9 nM
6,"CC(=O)NC1CCC(c2nnc(-c3cnc(-c4ccc5cc(C#N)cnn45)cc3NC34CCC(O)(CC3)CC4)s2)CC1 (centres unmarked) [Compound 241, N-((1r,4r)-4-(5-(6-(3-cyanopyrrolo[1,2-b]pyridazin-7-yl)-4-((4-hydroxybicyclo[2.2.2]octan-1-yl)amino)pyridin-3-yl)-1,3,4-thiadiazol-2-yl)cyclohexyl)acetamide]",4.8 nM
7,"CC(=O)N1C2CC1CN(c1nnc(-c3cnc(-c4ccc5cc(C#N)cnn45)cc3NC(C)C)s1)C2 [Compound 258, 7-(5-(5-(6-acetyl-3,6-diazabicyclo[3.1.1]heptan-3-yl)-1,3,4-thiadiazo1-2-yl)-4-(isopropylamino)pyridin-2-yl)pyrrolo[1,2-b]pyridazine-3-carbonitrile]",5.8 nM
8,"CC(C)Nc1cc(-c2ccc3cc(C#N)cnn23)ncc1-c1nnc([C@H]2CC[C@H](NC(=O)N3CCOCC3)CC2)s1 [Example 139, N-((1r,4r)-4-(5-(6-(3-cyanopyrrolo[1,2-]Apyridazin-7-yl)-4-(isopropylamino)pyridin-3-yl)-1,3,4-thiadiazol-2-yl)cyclohexyl)morpholine-4-carboxamide]",5.9 nM
9,"CN1CCC(C(=O)N[C@@H]2[C@@H]3CC[C@H]2CN(c2nnc(-c4cnc(-c5ccc6cc(C#N)cnn56)cc4NC4(C)COC4)s2)C3)CC1 [Example 119, N-((1R,5S,8s)-3-(5-(6-(3-cyanopyrrolo[1,2-b]pyridazin-7-yl)-4-((3-methyloxetan-3-yl)amino)pyridin-3-yl)-1,3,4-thiadiazol-2-yl)-3-azabicyclo[3.2.1]octan-8-yl)-1-methylpiperidine-4-carboxamide]",1.2 nM
10,"CC(C)(O)C(=O)N[C@H]1CC[C@@H](c2nnc(-c3cnc(-c4ccc5cc(C#N)cnn45)cc3NC3COC3)s2)CC1 [Example 311, N-((1s,4s)-4-(5-(6-(3-cyanopyrrolo[1,2-b]pyridazin-7-yl)-4-(oxetan-3-ylamino)pyridin-3-yl)-1,3,4-thiadiazol-2-yl)cyclohexyl)-2-hydroxy-2-methylpropanamide]",22.6 nM
11,"CC(=O)N[C@@H]1C[C@H]2C[C@@H]1CN2c1nnc(-c2cnc(-c3ccc4cc(C#N)cnn34)cc2NC(C)C)s1 [Example 73, N-((1R,4R,5R)-2-(5-(6-(3-cyanopyrrolo[1,2-]pyridazin-7-yl)-4-(isopropylamino)pyridin-3-yl)-1,3,4-thiadiazol-2-yl)-2-azabicyclo[2.2.1]heptan-5-yl)acetamide]",64.1 nM
12,"COC(=O)N[C@@H]1[C@@H]2CC[C@H]1CN(c1nnc(-c3cnc(-c4ccc5cc(C#N)cnn45)cc3NC(C)C)s1)C2 [Example 59, methyl ((1R,5S,8s)-3-(5-(6-(3-cyanopyrrolo[1,2-b]pyridazin-7-yl)-4-(isopropylamino)pyridin-3-yl)-1,3,4-thiadiazol-2-yl)-3-azabicyclo[3.2.1]octan-8-yl)carbamate]",14.7 nM
13,"CC(C)Nc1cc(-c2ccc3cc(C#N)cnn23)ncc1-c1nnc(N2CCC(O)(C(F)(F)F)CC2)s1 [Example 172, 7-(5-(5-(4-hydroxy-4-(trifluoromethyl)piperidin-l-yl)-1,3,4-thiadiazol-2-yl)-4-(isopropylamino)pyridin-2-yl)pyrrolo[1,2-b]pyridazine-3-carbonitrile]",34.4 nM
14,"CC(=O)N1CCN(c2nnc(-c3cnc(-c4ccc5cc(C#N)cnn45)cc3NC(C)C)s2)CC1 [Compound 232, 7-(5-(5-(4-acetylpiperazin-l-yl)-1,3,4-thiadiazol-2-yl)-4-(isopropylamino)pyridin-2-yl)pyrrolo[1,2-b]pyridazine-3-carbonitrile]",7.4 nM
15,CC(=O)NC1CCC2(CC1)CN(c1nnc(-c3cnc(-c4ccc5cc(C#N)cnn45)cc3NC3(C)COC3)s1)C2 [Example 99],5.8 nM
16,CC(=O)N[C@H]1[C@@H]2C[C@H]1CN(c1nnc(-c3cnc(-c4ccc5cc(C#N)cnn45)cc3NC(C)C)s1)C2 [Example 45],11.8 nM

# — patent US11046686B2, “Thiadiazole IRAK4 compounds” (Gilead Sciences, Inc., priority 2018, dated 2021)
